# PubChem BioAssay (NCI)
#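 Growth conditions: 96-well plates. Treatment: test compound, 48 hours, 5 concentrations. Analysis: linear interpolation between bracketing concentrations; unreached endpoints set to highest concentration. At the GI50, growth is halved. TGI: total growth inhibition.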
# Legend:
# Experiment in all cases: DTP human tumour cell line panel, 48 h
# [1] = tested on: NCI-H522 lung
# [2] = tested on: DMS 114 small cell lung
# [3] = tested on: COLO 205 colon
# [4] = tested on: SK-OV-3 ovarian
# [5] = tested on: SF-539 CNS
# [6] = tested on: SF-295 CNS
# [7] = tested on: SW-620 colon
# [8] = tested on: DMS 273 small cell lung
# [9] = tested on: M14 melanoma
# [10] = tested on: NCI-H23 lung
# [11] = tested on: XF 498 CNS
# [12] = tested on: A498 renal
# [13] = tested on: A549 NSCLC
# [14] = tested on: SK-MEL-5 melanoma
# [15] = tested on: UACC-257 melanoma
# [16] = tested on: OVCAR-3 ovarian
# [17] = tested on: SK-MEL-2 melanoma
# [18] = tested on: OVCAR-4 ovarian
# [19] = tested on: UACC-62 melanoma
# [20] = tested on: DLD-1 colon
# [21] = tested on: KM12 colon
# [22] = tested on: NCI-H460 lung
# [23] = tested on: HL-60(TB) leukemia
# [24] = tested on: LXFL 529 NSCLC
# [25] = tested on: MALME-3M melanoma
# [26] = tested on: U251 CNS
# [27] = tested on: RPMI-8226 leukemia
# [28] = tested on: OVCAR-8 ovarian
# [29] = tested on: HCC-2998 colon
# [30] = tested on: NCI-H226 lung
# [31] = tested on: EKVX NSCLC
# [32] = tested on: SK-MEL-28 melanoma
# [33] = tested on: CAKI-1 renal
# [34] = tested on: M19-MEL melanoma
# [35] = tested on: UO-31 renal
# [36] = tested on: IGROV1 ovarian
# [37] = tested on: HT29 colon
# [38] = tested on: CCRF-CEM leukemia
# [39] = tested on: LOX IMVI melanoma
# [40] = tested on: HCT-15 colon
# [41] = tested on: HCT-116 colon
# [42] = tested on: MOLT-4 leukemia
# [43] = tested on: HOP-62 NSCLC
# [44] = tested on: SF-268 CNS
# [45] = tested on: SN12C renal
# [46] = tested on: SNB-19 CNS
# [47] = tested on: 786-0 renal
# [48] = tested on: ACHN renal
# [49] = tested on: K-562 leukemia
# [50] = tested on: SNB-78 CNS
# [51] = tested on: HOP-18 NSCLC
# [52] = tested on: OVCAR-5 ovarian
# [53] = tested on: SNB-75 CNS
# [54] = tested on: TK-10 renal
# [55] = tested on: KM20L2 colon
# [56] = tested on: HOP-92 NSCLC
# [57] = tested on: SR leukemia
# [58] = tested on: RXF 393 renal
smiles,measurement,setting,value
CCOC(=O)CC[C@H](NC(=O)c1[nH]cnc1/N=N/N(C)C)C(=O)OCC,TGI,[1],> 100 µM
same,TGI,[2],> 100 µM
same,TGI,[3],> 100 µM
same,TGI,[4],> 100 µM
same,TGI,[5],> 100 µM
same,TGI,[6],> 100 µM
same,TGI,[7],> 100 µM
same,TGI,[8],> 100 µM
same,TGI,[9],> 100 µM
same,TGI,[10],> 100 µM
same,TGI,[11],> 100 µM
same,TGI,[12],> 100 µM
same,TGI,[13],> 100 µM
same,TGI,[14],> 100 µM
same,TGI,[15],> 100 µM
same,TGI,[16],> 100 µM
same,TGI,[17],> 100 µM
same,TGI,[18],> 100 µM
same,TGI,[19],> 100 µM
same,TGI,[20],> 100 µM
same,TGI,[21],> 100 µM
same,TGI,[22],> 100 µM
same,TGI,[23],> 100 µM
same,TGI,[24],> 100 µM
same,TGI,[25],> 100 µM
same,TGI,[26],> 100 µM
same,TGI,[27],> 100 µM
same,TGI,[28],> 100 µM
same,TGI,[29],> 100 µM
same,TGI,[30],> 100 µM
same,TGI,[31],> 100 µM
same,TGI,[32],> 100 µM
same,TGI,[33],> 100 µM
same,TGI,[34],> 100 µM
same,TGI,[35],> 100 µM
same,TGI,[36],> 100 µM
same,TGI,[37],> 100 µM
same,TGI,[38],> 100 µM
same,TGI,[39],> 100 µM
same,TGI,[40],> 100 µM
same,TGI,[41],> 100 µM
same,TGI,[42],> 100 µM
same,TGI,[43],> 100 µM
same,TGI,[44],> 100 µM
same,TGI,[45],> 100 µM
same,TGI,[46],> 100 µM
same,TGI,[47],> 100 µM
same,TGI,[48],> 100 µM
same,TGI,[49],> 100 µM
COc1cc2c(c(OC)c1OC)-c1ccc(SC)c(=O)cc1[C@@H](NCc1ccccc1[N+](=O)[O-])CC2,TGI,[1],0.0298 µM
same,TGI,[2],0.0243 µM
same,TGI,[3],0.0556 µM
same,TGI,[5],0.0199 µM
same,TGI,[50],40.6 µM
same,TGI,[6],> 100 µM
same,TGI,[7],> 100 µM
same,TGI,[9],0.21 µM
same,TGI,[10],0.0237 µM
same,TGI,[12],0.0283 µM
same,TGI,[13],> 100 µM
same,TGI,[15],47.2 µM
same,TGI,[16],0.0293 µM
same,TGI,[18],> 100 µM
same,TGI,[19],18.2 µM
same,TGI,[20],> 100 µM
same,GI50,[51],> 100 µM
same,TGI,[51],> 100 µM
same,TGI,[21],0.117 µM
same,TGI,[22],0.0826 µM
same,TGI,[24],15.8 µM
same,TGI,[25],> 100 µM
same,TGI,[26],0.0419 µM
same,TGI,[27],23.1 µM
same,TGI,[28],0.0499 µM
same,TGI,[29],0.0407 µM
same,GI50,[52],> 100 µM
same,TGI,[52],> 100 µM
same,TGI,[30],0.0558 µM
same,TGI,[31],> 100 µM
same,GI50,[53],1.53 µM
same,TGI,[32],> 100 µM
same,TGI,[33],> 100 µM
same,TGI,[34],> 100 µM
same,TGI,[35],> 100 µM
same,TGI,[37],0.0146 µM
same,TGI,[38],38.5 µM
same,TGI,[39],19 µM
same,TGI,[40],0.0487 µM
same,TGI,[41],0.0278 µM
same,TGI,[54],> 100 µM
same,TGI,[55],0.0112 µM
same,TGI,[56],> 100 µM
same,TGI,[42],> 100 µM
same,TGI,[43],> 100 µM
same,TGI,[46],> 100 µM
same,TGI,[47],41.5 µM
same,TGI,[48],> 100 µM
same,GI50,[49],0.171 µM
same,TGI,[49],> 100 µM
[N-]=[N+]=Nc1cc(=O)n(-c2ccccc2)c2ccccc12,TGI,[1],> 100 µM
same,TGI,[2],> 100 µM
same,TGI,[3],> 100 µM
same,TGI,[4],> 100 µM
same,TGI,[5],> 100 µM
same,TGI,[6],> 100 µM
same,TGI,[7],> 100 µM
same,TGI,[8],> 100 µM
same,TGI,[9],> 100 µM
same,TGI,[10],> 100 µM
same,TGI,[13],> 100 µM
same,TGI,[14],> 100 µM
same,TGI,[15],> 100 µM
same,TGI,[17],> 100 µM
same,TGI,[18],> 100 µM
same,TGI,[19],> 100 µM
same,TGI,[20],> 100 µM
same,TGI,[51],> 100 µM
same,TGI,[21],> 100 µM
same,TGI,[22],> 100 µM
same,TGI,[23],> 100 µM
same,TGI,[24],> 100 µM
same,TGI,[25],> 100 µM
same,TGI,[26],> 100 µM
same,TGI,[27],> 100 µM
same,TGI,[28],> 100 µM
same,TGI,[52],> 100 µM
same,TGI,[30],> 100 µM
same,TGI,[53],> 100 µM
same,TGI,[32],> 100 µM
same,TGI,[33],> 100 µM
same,TGI,[57],> 100 µM
same,TGI,[58],> 100 µM
same,TGI,[34],> 100 µM
same,TGI,[35],> 100 µM
same,TGI,[36],> 100 µM
same,TGI,[37],> 100 µM
same,TGI,[38],> 100 µM
same,TGI,[39],> 100 µM
same,TGI,[40],> 100 µM
same,TGI,[41],> 100 µM
same,TGI,[54],> 100 µM
same,TGI,[42],> 100 µM
same,TGI,[43],> 100 µM
same,TGI,[44],> 100 µM
same,TGI,[45],> 100 µM
same,TGI,[47],> 100 µM
same,TGI,[48],> 100 µM
same,TGI,[49],> 100 µM
